“Also recorded” adds a separate entry of the source.
How the values were obtained:
[1] = test system: rats; assay: Overall behavior and reactivities in rats; type: in vivo, rat; conditions: i.p.
Procedure: (§1) In the neuropsychopharmacological study which follows, a solution of CRL 41 153 in distilled water (pH 1.5) was administered intraperitoneally in a volume of 20 ml/kg to male mice and 5 ml/kg to male rats.
(§2) Groups of three animals are observed before and then 0.25 hour, 0.50 hour, 1 hour, 2 hours, 3 hours and 24 hours after the administration of CRL 41 153.

[2] = test system: mice; assay: Behavioral despair; type: in vivo, mouse; conditions: forcibly immersed mice, i.p.
Source text: Half an hour after they have received CRL 41 153, groups of 6 mice are placed in a beaker filled with water to a height of 6 cm. The total period of immobility between the 2nd and 6th minutes following immersion is noted.

[3] = test system: mice; assay: Interaction with reserpine; type: in vivo, mouse; conditions: i.p.
Procedure: Four hours after the intraperitoneal injection of 2.5 mg/kg of reserpine, groups of 6 mice receive CRL 41 153.

[4] = test system: mice; assay: Four plate test, traction and electric shock; type: in vivo, mouse; conditions: i.p.
Procedure: The test is performed on groups of 10 mice 30 minutes after the administration of CRL 41 153.

[5] = test system: mice; assay: Intergroup aggressiveness; type: in vivo, mouse; conditions: i.p.
Procedure: After they have stayed for 3 weeks in the two halves of a cage divided by an opaque partition, groups of 3 mice receive CRL 41 153. Half an hour later, the two groups from the same cage are brought together by removal of the partition, and the number of fights which occur in 10 minutes is noted.

[6] = pH of solutions in distilled water; type: physicochemical
Procedure: The neuropsychopharmacological study was undertaken according to the procedures described above for CRL 41 153, CRL 41 213 being adminstered intraperitoneally, in solution in distilled water, in a volume of 20 ml/kg to male mice and a volume of 5 ml/kg to male rats, and the pH of the injected solution varying with the concentration of CRL 41 213 according to the data given in Table II below.

[7] = test system: mice; assay: Motility reduced by habituation to the enclosure; type: in vivo, mouse; conditions: i.p.
Procedure: After they have stayed In the actimeters for 18 hours, (he mice (6 per dose, 12 control animals) receive CRL 41 153. They are immediately returned to their respective enclosures and, half an hour later, their motility is recorded for 30 minutes.

[8] = test system: mice; assay: Asphyxiant anoxia (gallamine triiodoethylate); type: in vivo, mouse; conditions: i.p., curarizing agent
Procedure: Groups of 10 mice receive CRL 41 153 half an hour before the intraperitoneal administration of 32 mg/kg of gallamine triiodoethylate (reference curarizing agent).

[9] = test system: CNS; assay: Neuropsychopharmacological profile as a whole; type: in vivo, mice and rats
Procedure: as §1

[10] = test system: mice; assay: Overall behavior and reactivities in mice; type: in vivo, mouse; conditions: i.p.
Procedure: as §1, §2

[11] = test system: rats; assay: Interaction with apomorphine in rats; type: in vivo, rat; conditions: i.p.
Procedure: CRL 41 153 is administered to groups of 6 rats 0.5 hour before the subcutaneous injection of 0.5 mg/kg of apomorphine.

[12] = test system: rats; assay: Investigation of stereotype movements; type: in vivo, rat; conditions: i.p., compared with amphetamine 2 mg/kg
Procedure: Immediately after the intraperitoneal administration of CRL 41 194 or amphetamine, groups of 6 rats are placed in Plexiglass boxes (20×10×10 cm). The stereotype movements are graded from 0 to 3 every 10 minutes until they wear off.
Groups of 6 rats receive an intraperitoneal injection of CRL 41 213, distilled water or amphetamine immediately before being placed in small cages, where their stereotype behavior is graded every 10 minutes until the effect wears off.

[13] = test system: male mice; assay: Acute toxicity by intraperitoneal administration; type: in vivo, mouse; conditions: i.p.
Procedure: as §1

[14] = test system: gravid White New Zealand female rabbits; assay: Teratogenicity in gravid White New Zealand rabbits; type: in vivo, rabbit; conditions: dose 0 mg/kg [sic]
In short: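 Fetuses harvested by cesarean on gestation day 29 were scored for number and for any malformation (limb blockade, anury, tail or skull defects, exencephaly).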

[15] = test system: rats; assay: Interaction with amphetamine; type: in vivo, rat; conditions: i.p.
Procedure: Amphetamine (2 mg/kg) is injected intraperitoneally into groups of 6 rats 30 minutes after the administration of CRL 41 153. […] 4 mg/kg and 16 mg/kg, CRL 41 153 potentiates the intensity and duration of the stereotypies induced by amphetamine.

[16] = test system: mice; assay: Motility reduced by hypoxic aggression; type: in vivo, mouse; conditions: i.p.
Procedure: Half an hour after they have received CRL 41 153, the mice (10 per dose, 20 control animals) are subjected to acute hypobaric anoxia [pressure reduction of 600 mm Hg (i.e. about 8×10^4 Pa) in 90 seconds; release of vacuum in 45 seconds] and are then placed in an actimeter, where their motility is recorded for 10 minutes.

[17] = test system: mice; assay: Interaction with barbital; type: in vivo, mouse; conditions: i.p., barbital 220 mg/kg
Procedure: Half an hour after the administration of CRL 41 153, groups of 10 mice receive an intraperitoneal injection of barbital (220 mg/kg).

[18] = test system: mice; assay: Interaction with apomorphine in mice; type: in vivo, mouse; conditions: i.p.
Procedure: Groups of 6 mice receive CRL 41 153 0.5 hour before the subcutaneous injection of 1 or 16 mg/kg of apomorphine.

[19] = test system: mice; assay: Spontaneous motility; type: in vivo, mouse; conditions: i.p.
Procedure: 0.5 hour after they have received CRL 41 153, the mice (6 per dose, 12 control animals) are placed in an actimeter, where their motility is recorded for 30 minutes.

[20] = test system: mice; assay: Interaction with oxotremorine; type: in vivo, mouse; conditions: i.p.
Procedure: CRL 41 153 is administered to groups of 6 mice 0.5 hour before the intraperitoneal injection of 0.5 mg/kg of oxotremorine.

In the case of `CCCNC(C)C(=O)c1ccc(N)cc1` (centres unmarked) [CRL 41 213], the Observed symptoms ([1]; 0.5 mg/kg) is reported as “mydriasis for 1 hour”, the Observed symptoms ([1]; 2 mg/kg) is reported as “excitation with the presence of stereotypies; also recorded: an increase in the fear reaction and in the reactivity to touch and noise for 2 hours” and the Observed symptoms ([1]; 8 mg/kg) is reported as “excitation with the presence of stereotypies; also recorded: an increase in the fear reaction and in the reactivity to touch and noise for 3 hours; also recorded: mydriasis for more than 3 hours”. The Observed symptoms ([1]; 32 mg/kg) was “excitation with the presence of very intense stereotypies; also recorded: an increase in the fear reaction and in the reactivity to touch and noise for 3 hours; also recorded: exophthalmos from 0.5 hour to 3 hours; also recorded: mydriasis for 3 hours; also recorded: polypnea”, the “Period of immobility due to despair” value [2] was “as from a dose of 0.5 mg/kg, CRL 41 213 distinctly reduces the period of immobility; also recorded: Total antagonism is obtained at doses of 4 mg/kg, 16 mg/kg and 64 mg/kg” and the “Effect on hypothermia induced by reserpine” value [3] was “at doses of 1 mg/kg and 4 mg/kg, CRL 41 213 opposes the hypothermic action of reserpine; also recorded: at a weaker dose (0.25 mg/kg), no effect is detected”. The “Effect on ptosis induced by reserpine” value [3] was “at doses of 1 mg/kg and 4 mg/kg, CRL 41 213 opposes the hypothermic action of reserpine as well as the ptosis induced by reserpine; also recorded: at a weaker dose (0.25 mg/kg), no effect is detected”, the “Effect on convulsant effects of electric shock” value [4] was “opposes the convulsant effects of electric shock 116 to 64 mg/kg)” and the “Motor incapacity (traction)” value [4] was “causes motor incapacity (64 mg/kg)”. The “Number of punished passes in the four plate test” value [4] was “At doses of 1 mg/kg, 4 mg/kg and 16 mg/kg, CRL 41 213 causes an increase in the number of punished passes; also recorded: This increase is not present at the strongest dose used (64 mg/kg)”, the “Number of fights / intergroup aggressiveness” value [5] was “does not modify the intergroup aggressiveness of mice” and the pH ([6]; 0.2 g/liter in distilled water) was 4.0. For the same molecule, the pH ([6]; 0.4 g/liter in distilled water) was 3.5, the pH ([6]; 0.8 g/liter in distilled water) was 3.0 and the pH ([6]; 1.6 g/liter in distilled water) was 2.5. The pH ([6]; 3.2 g/liter in distilled water) was 2.0, the pH ([6]; 25 g/liter in distilled water) was 1.5 and the pH ([6]; 50 g/liter in distilled water) was 1.0. The pH ([6]; ≤0.1 g/liter in distilled water) was 5.0, the “Motor activity of mice accustomed to their enclosure” value [7] was “at doses of 4 mg/kg, 16 mg/kg and 64 mg/kg, CRL 41 213 causes a resumption in the motor activity of mice accustomed to their enclosure” and the “Time taken for convulsions to occur” value [8] was “does not modify (he time taken for convulsions to occur”. For the same molecule, the “Time taken for death to occur” value [8] was “at a dose of 64 mg/kg, it moderately increases the time taken for death to occur”, the “Anticonvulsant effects (overall)” value ([9]; conclusion of the tests) was “at high but non-toxic doses, CRL 41 213 causes the appearance of clonic convulsions but opposes the convulsant effects of electric shock” and the “Antidepressant effects (overall)” value ([9]; conclusion of the tests) was “possessing antidepressant, stimulant and arousing properties”. For the same molecule, the “Stimulant effects (overall)” value ([9]; conclusion of the tests) was “possessing antidepressant, stimulant and arousing properties”, the “α-adrenergic stimulant effects (overall)” value ([9]; conclusion of the tests) was “effects reflecting peripheral α-adrenergic stimulation” and the “Peripheral α-adrenergic signs (mydriasis, salivation, lacrimation, exophthalmos)” value ([9]; species and dose not stated) was “mydriasis; also recorded: presence of salivation, lacrimation and exophthalmos”. For the same molecule, the Observed symptoms ([10]; 1 mg/kg) was “moderate sedation 0.5 hour after administration”, the Observed symptoms ([10]; 4 mg/kg) was “moderate excitation 0.5 hour after administration; also recorded: piloerection for 0.25 hour” and the Observed symptoms ([10]; 16 mg/kg) was “excitation for more than 3 hours with the presence of stereotypies for about 2 hours as from the 1st hour following administration; also recorded: an increase in the fear reaction, the reactivity to touch and the aggressiveness for more than 3 hour; also recorded: salivation, lacrimation and exophthalmos for 1 hour; also recorded: polypnea”. The Observed symptoms ([10]; 64 mg/kg) was “clonic convulsions for 0.5 hour; also recorded: excitation for more than 3 hours with the presence of stereotypies; also recorded: an increase in the fear reaction and the reactivity to touch from 2 hours to more than 3 hours; also recorded: mydriasis for more than 3 hours; also recorded: polypnea”, the “Effect on stereotypies induced by apomorphine” value [11] was “as from a dose of 2 mg/kg, CRL 41 213 causes an increase in the index of the stereotypes induced by apomorphine; also recorded: This increase is large in terms of intensity and duration at doses of 8 mg/kg and 32 mg/kg” and the Stereotype movements [12] was “As from a dose of 2 mg/kg, CRL 41 213 causes the appearance of stereotype movements in rats, the intensity of which is substantially comparable to that obtained with 2 mg/kg of amphetamine; also recorded: Increasing the doses leads to an increase in the intensity and duration of these stereotypies”. For the same molecule, the “LD0 (maximum non-lethal dose)” value [13] was “greater than or equal to 128 mg/kg”, the LD100 [13] was “less than or equal to 256 mg/kg” and the “Affected foetuses, number” value [14] was 1. For the same molecule, the “Total foetuses (live)” value [14] was 84, the “Affected foetuses, %” value ([14]; normal limit 1.5%) was 1.19% and the “Effect on stereotypies induced by amphetamine” value [15] was “as from a dose of 2 mg/kg, CRL 41 213 potentiates the stereotypies induced by amphetamine”. The “Motor recovery of mice after hypobaric hypoxia” value [16] was “As from 1 mg/kg, CRL 41 213 causes a distinct improvement in the motor recovery”, the “Duration of the sleep induced by barbital” value [17] was “as from a dose of 0.5 mg/kg. CRL 41 213 reduces the duration of the sleep induced by barbital; also recorded: Total antagonism is obtained for doses equal to or greater than 4 mg/kg” and the “Effect on hypothermia induced by apomorphine” value [18] was “at doses of 1 mg/kg, 4 mg/kg, 16 mg/kg and 64 mg/kg, CRL 41 213 strongly opposes the hypothermia induced by apomorphine in mice”. The “Effect on righting behavior and stereotypies induced by apomorphine” value [18] was “At the strongest dose studied (64 mg/kg), CRL 41 213 moderately reduces the righting behavior without modifying the stereotypies induced by apomorphine”, the Spontaneous motor activity [19] was “At doses of 1 mg/kg, 4 mg/kg and 16 mg/kg, CRL 41 213 causes a substantial increase in the spontaneous motor activity of mice; also recorded: At the strongest dose studied (64 mg/kg), CRL 41 213 causes clonic convulsions and stereotypies” and the “Effect on hypothermic action of oxotremorine” value [20] was “As from a dose of 4 mg/kg, CRL 41 213 opposes the hypothermic action of oxotremorine; also recorded: At the weakest dose studied (1 mg/kg), this effect is scarcely detectable”. The “Effect on trembling induced by oxotremorine” value [20] was “At the strongest doses (16 and 64 mg/kg), CRL 41 213 reduces the intensity of the trembling” and the “Action on the peripheral cholinergic symptoms” value ([20]; oxotremorine) was “does not change the signs of peripheral cholinergic stimulation produced by oxotremorine”.

From patent US4980377A, “1-(aminophenyl)-2-aminopropanone derivatives” (Laboratoire L. Lafon, priority 1984, dated 1990)
